Test results taken from ChEMBL document CHEMBL5500342, “Rational molecular design converting fascaplysin derivatives to potent broad-spectrum inhibitors against bacterial pathogens via targeting FtsZ” (Eur J Med Chem, 2024).
Values after ≈ are worked out from the molar mass of the structure shown.

What was measured:
Salmonella enteritidis = assay: Antibacterial activity against Salmonella enteritidis BNCC281091 assessed as inhibition of bacterial growth incubated for 18 hrs by CLSI protocol based microbroth dilution method; type: functional, Salmonella enterica subsp. enterica serovar Enteritidis; conditions: Salmonella enterica
Bacillus subtilis = assay: Antibacterial activity against Bacillus subtilis BNCC336690 assessed as inhibition of bacterial growth incubated for 18 hrs by CLSI protocol based microbroth dilution method; type: functional
Staphylococcus aureus [1] = assay: Antibacterial activity against methicillin-resistant Staphylococcus aureus ATCC43300; type: functional
Escherichia coli [2] = assay: Antibacterial activity against penicillin-susceptible Escherichia coli ATCC25922; type: functional
Streptococcus pneumoniae = assay: Antibacterial activity against Streptococcus pneumoniae ATCC49619 assessed as inhibition of bacterial growth incubated for 18 hrs by CLSI protocol based microbroth dilution method; type: functional
Pseudomonas aeruginosa = assay: Antibacterial activity against Pseudomonas aeruginosa BNCC337940 assessed as inhibition of bacterial growth incubated for 18 hrs by CLSI protocol based microbroth dilution method; type: functional
Staphylococcus aureus [3] = assay: Antibacterial activity against methicillin-resistant Staphylococcus aureus ATCC43300 assessed as inhibition of bacterial growth incubated for 18 hrs by CLSI protocol based microbroth dilution method; type: functional
Escherichia coli [4] = assay: Antibacterial activity against penicillin-susceptible Escherichia coli ATCC25922 assessed as inhibition of bacterial growth incubated for 18 hrs by CLSI protocol based microbroth dilution method; type: functional
Escherichia coli [5] = assay: Bactericidal activity against penicillin-susceptible Escherichia coli ATCC25922 incubated for 24 hrs by CLSI protocol based microbroth dilution method; type: functional
Staphylococcus aureus [6] = assay: Bactericidal activity against methicillin-resistant Staphylococcus aureus ATCC43300 incubated for 24 hrs by CLSI protocol based microbroth dilution method; type: functional
Staphylococcus aureus [7] = assay: Selectivity ratio of MBC for bactericidal activity against methicillin-resistant Staphylococcus aureus ATCC43300 to MIC for antibacterial activity against methicillin-resistant Staphylococcus aureus ATCC43300; type: functional
[8] = Selectivity ratio of MBC for bactericidal activity against penicillin-susceptible Escherichia coli ATCC25922 to MIC for antibacterial activity against penicillin-susceptible Escherichia coli ATCC25922; type: functional

O=C1c2ccccc2-[n+]2ccc3c([nH]c4ccc(-c5ccccc5)cc43)c21.[Cl-]
MIC (Salmonella enteritidis): > 200 µg/mL | MIC (Bacillus subtilis): 0.195 µg/mL | MIC (Staphylococcus aureus [1]): 0.78 µg/mL | MIC (Escherichia coli [2]): 3.12 µg/mL | MIC (Streptococcus pneumoniae): 0.195 µg/mL | MIC (Pseudomonas aeruginosa): 200 µg/mL

O=C1c2ccccc2-[n+]2ccc3c([nH]c4ccc(-c5cccc(Cl)c5)cc43)c21.[Cl-]
MIC (Salmonella enteritidis): > 200 µg/mL | MIC (Bacillus subtilis): 0.195 µg/mL | MIC (Staphylococcus aureus [3]): 0.39 µg/mL | MIC (Escherichia coli [4]): 25 µg/mL | MIC (Streptococcus pneumoniae): 0.195 µg/mL | MIC (Pseudomonas aeruginosa): > 200 µg/mL

COc1ccc(-c2ccc3[nH]c4c5[n+](ccc4c3c2)-c2ccccc2C5=O)cc1.[Cl-]
MIC (Salmonella enteritidis): > 200 µg/mL | MIC (Bacillus subtilis): 0.195 µg/mL | MIC (Staphylococcus aureus [1]): 0.78 µg/mL | MIC (Escherichia coli [2]): 25 µg/mL | MIC (Streptococcus pneumoniae): 0.195 µg/mL | MIC (Pseudomonas aeruginosa): > 200 µg/mL

CN[C@H](CC(C)C)C(=O)N[C@H]1C(=O)N[C@@H](CC(N)=O)C(=O)N[C@H]2C(=O)N[C@H]3C(=O)N[C@H](C(=O)N[C@H](C(=O)O)c4cc(O)cc(O)c4-c4cc3ccc4O)[C@H](O)c3ccc(c(Cl)c3)Oc3cc2cc(c3O[C@@H]2O[C@H](CO)[C@@H](O)[C@H](O)[C@H]2O[C@H]2C[C@](C)(N)[C@H](O)[C@H](C)O2)Oc2ccc(cc2Cl)[C@H]1O [VANCOMYCIN]
MBC (Escherichia coli [5]): 3.12 µg/mL (≈ 2.16 µM) | MIC (Bacillus subtilis): 0.39 µg/mL (≈ 0.269 µM) | MBC (Staphylococcus aureus [6]): 1 µg/mL (≈ 0.69 µM) | MIC (Streptococcus pneumoniae): 1.56 µg/mL (≈ 1.08 µM)

CCCc1ccc(-c2ccc3[nH]c4c5[n+](ccc4c3c2)-c2ccccc2C5=O)cc1.[Cl-]
MIC (Salmonella enteritidis): > 200 µg/mL | MIC (Bacillus subtilis): 0.195 µg/mL | MIC (Staphylococcus aureus [3]): 1.56 µg/mL | MIC (Escherichia coli [4]): > 200 µg/mL | MIC (Streptococcus pneumoniae): 0.195 µg/mL | MIC (Pseudomonas aeruginosa): > 200 µg/mL

Cc1cccc(-c2ccc3[nH]c4c5[n+](ccc4c3c2)-c2ccccc2C5=O)c1.[Cl-]
MIC (Salmonella enteritidis): > 200 µg/mL | MIC (Bacillus subtilis): 0.195 µg/mL | MIC (Staphylococcus aureus [3]): 0.39 µg/mL | MIC (Escherichia coli [4]): > 200 µg/mL | MIC (Streptococcus pneumoniae): 0.195 µg/mL | MIC (Pseudomonas aeruginosa): > 200 µg/mL

O=C1c2ccccc2-[n+]2ccc3c([nH]c4ccc(-c5ccc(Cl)cc5)cc43)c21.[Cl-]
MIC (Salmonella enteritidis): > 200 µg/mL | MIC (Bacillus subtilis): 0.195 µg/mL | MIC (Staphylococcus aureus [3]): 1.56 µg/mL | MIC (Escherichia coli [4]): > 200 µg/mL | MIC (Streptococcus pneumoniae): 0.39 µg/mL | MIC (Pseudomonas aeruginosa): > 200 µg/mL

O=C1c2ccccc2-[n+]2ccc3c([nH]c4ccccc43)c21 [FASCAPLYSIN]
MBC (Escherichia coli [5]): 25 µg/mL | Selectivity ratio (Staphylococcus aureus [7]): 2 | MIC (Staphylococcus aureus [3]): 0.78 µg/mL | Selectivity ratio [8]: 2 | MIC (Escherichia coli [4]): 12.5 µg/mL | MBC (Staphylococcus aureus [6]): 1.56 µg/mL

CCCCc1ccc(-c2ccc3[nH]c4c5[n+](ccc4c3c2)-c2ccccc2C5=O)cc1.[Cl-]
MIC (Salmonella enteritidis): > 200 µg/mL | MIC (Bacillus subtilis): 1.56 µg/mL | MIC (Staphylococcus aureus [3]): 6.25 µg/mL | MIC (Escherichia coli [4]): > 200 µg/mL | MIC (Streptococcus pneumoniae): 0.78 µg/mL | MIC (Pseudomonas aeruginosa): > 200 µg/mL

O=C1c2ccccc2-[n+]2ccc3c([nH]c4ccc(-c5cc(F)cc(F)c5)cc43)c21.[Cl-]
MIC (Salmonella enteritidis): > 200 µg/mL | MIC (Bacillus subtilis): 0.195 µg/mL | MIC (Staphylococcus aureus [3]): 3.12 µg/mL | MIC (Escherichia coli [4]): 12.5 µg/mL | MIC (Streptococcus pneumoniae): 0.195 µg/mL | MIC (Pseudomonas aeruginosa): > 200 µg/mL

O=C1c2ccccc2-[n+]2ccc3c([nH]c4ccc(-c5ccc(F)cc5F)cc43)c21.[Cl-]
MIC (Salmonella enteritidis): > 200 µg/mL | MIC (Bacillus subtilis): 0.195 µg/mL | MIC (Staphylococcus aureus [1]): 0.195 µg/mL | MIC (Escherichia coli [2]): 1.56 µg/mL | MIC (Streptococcus pneumoniae): 0.195 µg/mL | MIC (Pseudomonas aeruginosa): > 200 µg/mL

Cc1ccc(-c2ccc3[nH]c4c5[n+](ccc4c3c2)-c2ccccc2C5=O)cc1C.[Cl-]
MIC (Salmonella enteritidis): > 200 µg/mL | MIC (Bacillus subtilis): 0.195 µg/mL | MIC (Staphylococcus aureus [3]): 6.25 µg/mL | MIC (Escherichia coli [4]): > 200 µg/mL | MIC (Streptococcus pneumoniae): 0.78 µg/mL | MIC (Pseudomonas aeruginosa): > 200 µg/mL

CCc1ccc(-c2ccc3[nH]c4c5[n+](ccc4c3c2)-c2ccccc2C5=O)cc1.[Cl-]
MIC (Salmonella enteritidis): > 200 µg/mL | MIC (Bacillus subtilis): 0.195 µg/mL | MIC (Staphylococcus aureus [3]): 1.56 µg/mL | MIC (Escherichia coli [4]): > 200 µg/mL | MIC (Streptococcus pneumoniae): 0.195 µg/mL | MIC (Pseudomonas aeruginosa): > 200 µg/mL

O=C1c2ccccc2-[n+]2ccc3c([nH]c4ccc(-c5ccc(C(F)(F)F)cc5)cc43)c21.[Cl-]
MIC (Salmonella enteritidis): > 200 µg/mL | MIC (Bacillus subtilis): 0.195 µg/mL | MIC (Staphylococcus aureus [1]): 0.39 µg/mL | MIC (Escherichia coli [2]): 1.56 µg/mL | MIC (Streptococcus pneumoniae): 1.56 µg/mL | MIC (Pseudomonas aeruginosa): > 200 µg/mL

COc1cccc(-c2ccc3[nH]c4c5[n+](ccc4c3c2)-c2ccccc2C5=O)c1.[Cl-]
MIC (Salmonella enteritidis): > 200 µg/mL | MIC (Bacillus subtilis): 0.195 µg/mL | MIC (Staphylococcus aureus [1]): 0.39 µg/mL | MIC (Escherichia coli [2]): 12.5 µg/mL | MIC (Streptococcus pneumoniae): 0.39 µg/mL | MIC (Pseudomonas aeruginosa): > 200 µg/mL

O=C1c2ccccc2-[n+]2ccc3c([nH]c4ccc(-c5ccc(F)cc5)cc43)c21.[Cl-]
MIC (Salmonella enteritidis): > 200 µg/mL | MIC (Bacillus subtilis): 0.195 µg/mL | MIC (Staphylococcus aureus [1]): 1.56 µg/mL | MIC (Escherichia coli [2]): 6.25 µg/mL | MIC (Streptococcus pneumoniae): 0.195 µg/mL | MIC (Pseudomonas aeruginosa): > 200 µg/mL

Cc1ccc(-c2ccc3[nH]c4c5[n+](ccc4c3c2)-c2ccccc2C5=O)cc1.[Cl-]
MIC (Salmonella enteritidis): > 200 µg/mL | MIC (Bacillus subtilis): 0.195 µg/mL | MIC (Staphylococcus aureus [1]): 0.39 µg/mL | MIC (Escherichia coli [2]): 12.5 µg/mL | MIC (Streptococcus pneumoniae): 0.195 µg/mL | MIC (Pseudomonas aeruginosa): > 200 µg/mL
